Several values for one entry are separate records, joined by “and”; a condition that tells them apart may be missing. Identical values can stand only once.

This test deals with Cholinesterase (Equus caballus, UniProt P81908). Description: Inhibition of horse serum BChE by Ellman's reaction. In general terms: DTNB colorimetry detects thiols as they appear.
Cholinesterase, sequence (P81908 whole entry): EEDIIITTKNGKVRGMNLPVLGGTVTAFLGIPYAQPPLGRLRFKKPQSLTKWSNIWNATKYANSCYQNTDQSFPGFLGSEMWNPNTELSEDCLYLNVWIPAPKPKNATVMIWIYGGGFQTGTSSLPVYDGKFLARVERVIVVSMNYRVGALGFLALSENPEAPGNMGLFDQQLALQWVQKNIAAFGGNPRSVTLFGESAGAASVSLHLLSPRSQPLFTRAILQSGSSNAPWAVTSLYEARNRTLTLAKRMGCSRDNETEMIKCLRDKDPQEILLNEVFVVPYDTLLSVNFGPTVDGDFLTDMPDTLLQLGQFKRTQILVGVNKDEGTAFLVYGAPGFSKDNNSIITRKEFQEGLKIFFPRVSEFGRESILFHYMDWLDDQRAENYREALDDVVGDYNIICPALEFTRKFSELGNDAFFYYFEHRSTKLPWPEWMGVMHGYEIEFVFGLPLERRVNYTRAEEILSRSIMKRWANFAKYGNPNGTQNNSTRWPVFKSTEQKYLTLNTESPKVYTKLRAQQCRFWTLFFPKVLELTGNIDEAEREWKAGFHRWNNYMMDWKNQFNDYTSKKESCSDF

Usually IC50 stands for the concentration that inhibits the measured activity by half. A lower IC50 goes with greater potency in that assay. The molecule `C[n+]1ccc2c(c1)[nH]c1ccccc12` came in with an IC50 of 11.2 µM.

As to `C[n+]1ccc2c(c1)[nH]c1ccc(Cl)cc12` [NOSTOCARBOLINE], the 50% inhibitory concentration (IC50) was 19.4 µM and 13.2 µM.

The values are drawn from ChEMBL document CHEMBL1151286, “Nostocarboline: isolation and synthesis of a new cholinesterase inhibitor from Nostoc 78-12A” (J Nat Prod, 2005).
